# Measurements published in US11845760B2, “PRMT5 inhibitors” (AMGEN INC., priority 2020, dated 2023).
# Like-named read-outs stand apart in the source and are kept apart here.
# Legend:
# HCT116 WT cells = assay: HCT116 WT cell line proliferation (CellTiter-Glo cell viability, 6 days); format: cell-based; conditions: HCT116 WT (parent) cells, 6 days of treatment, CellTiter-Glo cell viability, read-out: HCT-116 WT IC50
# Procedure, shortened: (§1)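 Isogenic HCT116 pair (both MTAP alleles knocked out vs parent) in RPMI 1640 + 10% FBS, seeded overnight at 37° C, 5% CO2, then exposed 6 days to 8- or 9-point 1:3 dilutions from 1 or 10 μM. CellTiter-Glo luminescence; IC50 from sigmoidal fit, Hill slope fixed −1, top 100%, or 4-parameter logistic.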
# HCT116 MTAP null cells = assay: HCT116 MTAP null cell line proliferation (CellTiter-Glo cell viability, 6 days); format: cell-based; conditions: HCT116 MTAP null cells, 6 days of treatment, CellTiter-Glo cell viability, read-out: HCT-116 MTAP null IC50
# Procedure, shortened: as §1
Molecule,"IC50 (HCT116 WT cells; Homo sapiens, HCT-116, 144 h)","IC50 (HCT116 MTAP null cells; HCT116-MTAP null, 144 h)",IC50 (HCT116 WT cells),IC50 (HCT116 MTAP null cells)
"Nc1nc2ccc(C(=O)N3CCOCC3c3ccc(CC(F)(F)F)cc3)cc2c2c1COC2 (racemic) [Example 508, (4-amino-1,3-dihydrofuro[3,4-c]quinolin-8-yl)((3R)-3-(4-(2,2,2-trifluoroethyl)phenyl)-4-morpholinyl)methanone and (4-amino-1,3-dihydrofuro[3,4-c]quinolin-8-yl)((3S)-3-(4-(2,2,2-trifluoroethyl)phenyl)-4-morpholinyl)methanone]",6610 nM,603 nM,–,–
"(4-amino-7-fluoro-1-methyl- 1H-pyrazolo[4,3-c]quinolin- 8-yl)((4R)-3,3-dimethyl-4-(4- (trifluoromethyl)phenyl)-1- pyrrolidinyl)methanone and (4-amino-7-fluoro-1-methyl- 1H-pyrazolo[4,3-c]quinolin- 8-yl)((4S)-3,3-dimethyl-4-(4- (trifluoromethyl)phenyl)-1- pyrrolidinyl)methanone [Example 445]",–,–,240 nM,11 nM
"Nc1nc2cnc(C(=O)N3CCOCC3c3ccc(F)c(OC(F)(F)F)c3)cc2c2c1COC2 (racemic) [Example 345, (4-amino-1,3-dihydrofuro[3,4-c][1,7]naphthyridin-8-yl)((3R)-3-(4-fluoro-3-(trifluoromethoxy)phenyl)-4-morpholinyl)methanone and (4-amino-1,3-dihydrofuro[3,4-c][1,7]naphthyridin-8-yl)((3S)-3-(4-fluoro-3-(trifluoromethoxy)phenyl)-4-morpholinyl)methanone]",19100 nM,346 nM,–,–
"Cn1ncc2c3cc(C(=O)N4CCOC[C@@H]4c4ccc(OC(F)F)cn4)ccc3nc(N)c21 [Example 369, (4-amino-3-methyl-3H-pyrazolo[3,4-c]quinolin-8-yl)((3S)-3-(5-(difluoromethoxy)-2-pyridinyl)-4-morpholinyl)methanone]",15400 nM,340 nM,–,–
"CCOc1ccc([C@@H]2COC[C@H](C)N2C(=O)c2ccc3nc(N)c4c(c3c2)COC4)nn1 (racemic) [Example 319, (4-amino-1,3-dihydrofuro[3,4-c]quinolin-8-yl)((3R,5S)-3-(6-ethoxy-3-pyridazinyl)-5-methyl-4-morpholinyl)methanone and (4-amino-1,3-dihydrofuro[3,4-c]quinolin-8-yl)((3S,5R)-3-(6-ethoxy-3-pyridazinyl)-5-methyl-4-morpholinyl)methanone]",5580 nM,145 nM,–,–
"Cc1cc2nc(N)c3cnn(C)c3c2cc1C(=O)N1CCOC[C@@H]1c1ccc(C(F)(F)F)cc1 [Example 413, (4-amino-1,7-dimethyl-1H-pyrazolo[4,3-c]quinolin-8-yl)((3S)-3-(4-(trifluoromethyl)phenyl)-4-morpholinyl)methanone]",413 nM,22 nM,–,–
"Cn1ncc2c(N)nc3cnc(C(=O)N4CCOC[C@@H]4c4ccc(C(F)(F)F)cc4)cc3c21 [Example 371, (4-amino-1-methyl-1H-pyrazolo[4,3-c][1,7]naphthyridin-8-yl)((3S)-3-(4-(trifluoromethyl)phenyl)-4-morpholinyl)methanone]",707 nM,22 nM,–,–
"Cn1ncc2c(N)nc3cc(F)c(C(=O)N4CC(c5ccc(C(F)(F)F)cc5)C4)cc3c21 [Example 427, (4-amino-7-fluoro-1-methyl-1H-pyrazolo[4,3-c]quinolin-8-yl)(3-(4-(trifluoromethyl)phenyl)-1-azetidinyl)methanone]",2540 nM,40 nM,–,–
"C[C@@H]1OCc2c1c(N)nc1cnc(C(=O)N3[C@H](C)COC[C@@H]3c3ccc(OC(F)(F)F)cn3)cc21 (racemic) [Example 379, ((3S)-4-amino-3-methyl-1,3-dihydrofuro[3,4-c][1,7]naphthyridin-8-yl)((3R,5S)-3-methyl-5-(5-(trifluoromethoxy)-2-pyridinyl)-4-morpholinyl)methanone and ((3S)-4-amino-3-methyl-1,3-dihydrofuro[3,4-c][1,7]naphthyridin-8-yl)((3S,5R)-3-methyl-5-(5-(trifluoromethoxy)-2-pyridinyl)-4-morpholinyl)methanone]",> 10000 nM,927 nM,–,–
"Nc1nc2ccc(C(=O)N3CCC(F)(F)CC3c3ccc(Br)cc3)cc2c2c1COC2 (racemic) [Example 368, (4-amino-1,3-dihydrofuro[3,4-c]quinolin-8-yl)-[rac-(2R)-2-(4-bromophenyl)-4,4-difluoro-1-piperidyl]methanone]",2030 nM,457 nM,–,–
"CCOc1ccc(C2COCCN2C(=O)c2cc3c4c(c(N)nc3cc2F)COC4)nn1 (racemic) [Example 392, (4-amino-7-fluoro-1,3-dihydrofuro[3,4-c]quinolin-8-yl)((3R)-3-(6-ethoxy-3-pyridazinyl)-4-morpholinyl)methanone and (4-amino-7-fluoro-1,3-dihydrofuro[3,4-c]quinolin-8-yl)((3S)-3-(6-ethoxy-3-pyridazinyl)-4-morpholinyl)methanone]",> 10000 nM,216 nM,–,–
"Nc1nc2cnc(C(=O)N3CCOCC3c3ccc(C(F)(F)F)cc3F)cc2c2c1COC2 (racemic) [Example 387, (4-amino-1,3-dihydrofuro[3,4-c][1,7]naphthyridin-8-yl)((3R)-3-(2-fluoro-4-(trifluoromethyl)phenyl)-4-morpholinyl)methanone and (4-amino-1,3-dihydrofuro[3,4-c][1,7]naphthyridin-8-yl)((3S)-3-(2-fluoro-4-(trifluoromethyl)phenyl)-4-morpholinyl)methanone]",–,–,7250 nM,193 nM
"C[C@@H]1COC[C@H](c2ccc(C(F)(F)F)cn2)N1C(=O)c1cc2c(cc1F)nc(N)c1cnn(C)c12 [Example 519, (4-amino-7-fluoro-1-methyl-1H-pyrazolo[4,3-c]quinolin-8-yl)((3R,5S)-3-methyl-5-(5-(trifluoromethyl)-2-pyridinyl)-4-morpholinyl)methanone]",26 nM,4 nM,–,–
"CC1OCc2c1c(N)nc1cnc(C(=O)N3CCOCC3c3ccc(C(F)(F)C(F)(F)F)cc3)cc21 (mixture of isomers) [Example 337, ((3R)-4-amino-3-methyl-1,3-dihydrofuro[3,4-c][1,7]naphthyridin-8-yl)((3S)-3-(4-(pentafluoroethyl)phenyl)-4-morpholinyl)methanone and ((3S)-4-amino-3-methyl-1,3-dihydrofuro[3,4-c][1,7]naphthyridin-8-yl)((3S)-3-(4-(pentafluoroethyl)phenyl)-4-morpholinyl)methanone]",–,–,1460 nM,30 nM
"Cc1ccc([C@H]2COCCN2C(=O)c2ccc3nc(N)c4c(c3c2)COC4)cn1 (single isomer, unassigned) [Example 606]",> 10000 nM,1030 nM,–,–
"C[C@H]1COC[C@@H](c2ccc(C#N)cc2)N1C(=O)c1cc2c3c(c(N)nc2cn1)COC3 (racemic) [Example 389, 4-((3R,5S)-4-((4-amino-1,3-dihydrofuro[3,4-c][1,7]naphthyridin-8-yl)carbonyl)-5-methyl-3-morpholinyl)benzonitrile and 4-((3S,5R)-4-((4-amino-1,3-dihydrofuro[3,4-c][1,7]naphthyridin-8-yl)carbonyl)-5-methyl-3-morpholinyl)benzonitrile]",1610 nM,52 nM,–,–
"C[C@@H]1COC[C@H](c2ccc(OC3CC3)nn2)N1C(=O)c1cc2c3c(c(N)nc2cn1)COC3 [Example 550, (4-amino-1,3-dihydrofuro[3,4-c][1,7]naphthyridin-8-yl)((3S,5R)-3-(6-(cyclopropyloxy)-3-pyridazinyl)-5-methyl-4-morpholinyl)methanone]",3150 nM,73 nM,–,–
"Cn1ncc2c(N)nc3cc(F)c(C(=O)N4CCOC[C@@H]4c4ccc(C(F)(F)F)cn4)cc3c21 [Example 558, (4-amino-7-fluoro-1-methyl-1H-pyrazolo[4,3-c]quinolin-8-yl)((3S)-3-(5-(trifluoromethyl)-2-pyridinyl)-4-morpholinyl)methanone]",630 nM,17 nM,–,–
"Nc1nc2ccc(C(=O)N3CCOCC3c3ccccc3)cc2c2c1COC2 (racemic) [Example 493, (4-amino-1,3-dihydrofuro[3,4-c]quinolin-8-yl)-[rac-(3S)-3-phenylmorpholin-4-yl]methanone]",> 10000 nM,> 1000 nM,–,–
"Cn1ncc2c(N)nc3ccc(C(=O)N4CCOC[C@@H]4c4ccc(S(F)(F)(F)(F)F)cc4)cc3c21 [Example 447, (4-amino-1-methyl-1H-pyrazolo [4,3-c]quinolin-8-yl)((3S)-3-(4-(pentafluoro-lambda~6~-sulfanyl)phenyl)-4-morpholinyl)methanone]",602 nM,13 nM,–,–
"Nc1nc2cc(F)c(C(=O)N3CCOCC3c3ccc(F)c(OC(F)(F)F)c3)cc2c2c1COC2 (racemic) [Example 347, (4-amino-7-fluoro-1,3-dihydrofuro[3,4-c]quinolin-8-yl)((3R)-3-(4-fluoro-3-(trifluoromethoxy)phenyl)-4-morpholinyl)methanone and (4-amino-7-fluoro-1,3-dihydrofuro[3,4-c]quinolin-8-yl)((3S)-3-(4-fluoro-3-(trifluoromethoxy)phenyl)-4-morpholinyl)methanone]",4700 nM,325 nM,–,–
"Nc1nc2cnc(C(=O)N3CCCC[C@H]3c3ccc(C(F)(F)F)cc3)cc2c2c1COC2 (single isomer, unassigned) [Example 486]",> 10000 nM,> 1000 nM,–,–
